One compound from US8697747B2, “Enhancing coagulation or reducing fibrinolysis” (THe UAB Research Foundation, priority 2009, dated 2014) can be followed below.

Molecules are shown by their SMILES.

Holding throughout (type): biochemical, human
The test system of assay [1] is plasma from donors treated with warfarin. The assay is described as follows: Thrombelastography/CLSM in plasma of warfarin-treated donors with or without tPA. The following applies: warfarin-treated subjects, tPA 100 IU/mL; 100 μM CORM-2. The protocol: Pooled normal plasma (George King Bio-Medical, Overland Park, Kans.) anticoagulated with sodium citrate was utilized for experimentation. […] Plasma anticoagulated with sodium citrate procured from anonymous donors treated with warfarin was also obtained from the same vendor.
Plasma sample composition of experiments without tPA addition. The final volume for all subsequently described plasma sample mixtures was 359.6 μL. Sample composition consisted of 326 μL of plasma, 10 μL of tissue factor reagent (0.1% final concentration in dH2O; Instrumentation Laboratory, Lexington, Mass.), 3.6 μL of dimethyl sulfoxide (DMSO) or DMSO with CORM-2 (100 μM final concentration; Sigma-Aldrich, St. Louis, Mo.), and 20 μL of 200 mM CaCl2. Tissue factor stock was kept on ice prior to use and was remade every two hours. […] DMSO was added to dry CORM-2 just prior to placement into the plasma mixture. Six replicate experiments were performed with pooled normal plasma with or without CORM-2 added, whereas plasma obtained from subjects treated with warfarin underwent singlicate experiments with or without CORM-2 exposure.
Plasma sample composition of experiments with tPA addition. […]
Clot Lifespan Model Analyses. […] Time to maximum rate of lysis (TMRL): This is the time interval (sec) measured from the time of maximum strength to the time when the velocity of clot disintegration is maximal. […]

The subject of assay [2] is pooled normal plasma. The assay is described as follows: Thrombelastographic coagulation kinetics, tissue factor-activated normal plasma. The settings on record: 100 μM. The method, then:
(§1) Pooled normal plasma (George King Bio-Medical, Overland Park, Kans.) anticoagulated with sodium citrate was utilized for experimentation. […] Factor XIII (FXIII) deficient plasma anticoagulated with sodium citrate was also obtained from George King Bio-Medical (Overland Park, Kans.).
(§2) Plasma Sample Composition. The final volume for all subsequently described plasma sample mixtures was 359.4 μL. […] (Motterlini et al., Expert Opin Investig Drugs, 14:1305-1318 (2005), which is incorporated by reference herein in its entirety).
(§3) Clot Lifespan Model Analyses. Plasma sample mixtures were placed in a disposable cup in a computer-controlled THROMBELASTOGRAPH® hemostasis system (Model 5000, Haemoscope Corp., Niles, Ill.), with addition of CaCl2 as the last step to initiate clotting. Data were collected for 15 minutes, as normal plasma completes thrombus formation within this interval in this system (Dong et al., Eur J Pharmacol 590:99-104 (2008)).
(§4) Statistical Analyses. Data are presented as mean±SD. All conditions described were represented with n=8 experiments, as n=6-8 typically provides statistical power>0.8 in similar analyses (Nielsen et al., Acta Anaesthesiol Scand 49:222-231 (2005) and Nielsen et al., Blood Coagul Fibrinolysis 17:75-81 (2006)). Analyses of the effects of CORM-2 and iCORM-2 on thrombelastographic variables were conducted using one way analysis of variance with the Holm-Sidak test used for post hoc comparisons. Graphical representation of the data was generated with commercially available software (Origin 7.5, OriginLab Corp., Northampton, Mass.). A P value of ≦0.05 was considered significant.

The test system of assay [3] is pooled normal plasma. The assay is described as follows: Thrombelastographic coagulation kinetics, Celite-activated normal plasma. The settings on record: 100 μM, mean ± SD, n=8. The protocol: as §1, §2, §3, §4
Where [4] appears, read: TF-activated normal plasma, mean ± SD, n=8.

As to `[C-]#[O+].[C-]#[O+].[C-]#[O+].[C-]#[O+].[C-]#[O+].[C-]#[O+].[Cl][Ru][Cl].[Cl][Ru][Cl]` [CORM-2, tricarbonyldichlororuthenium (II) dimer], in assay [1], the “effect on clot lifespan” value was “The clot lifespan was increased in all subjects” and the “increase in MRL, % of baseline values” is recorded as 11-181%. Moreover, in the assay on pooled normal plasma [2] (setting [4]), the “MRTG (maximum rate of thrombus generation)” value was 9.1 ± 0.9 dynes/cm^2/sec, the “TMRTG (time to maximum rate of thrombus generation)” value came out at 156 ± 13 s and the “TTG (total thrombus generation)” value is 273 ± 21 dynes/cm^2. For the same compound, the “velocity of clot growth relative to unexposed samples” value in the assay with pooled normal plasma [2] (tissue factor activation) is recorded as “more than double”. In addition, in the assay on pooled normal plasma [3], the “MRTG (maximum rate of thrombus generation)” value was determined as 13.7 ± 1.3 dynes/cm^2/sec, the “TMRTG (time to maximum rate of thrombus generation)” value stood at 188 ± 18 s and the “TTG (total thrombus generation)” value is 248 ± 17 dynes/cm^2.
